Biological target: T1, Cholecystokinin receptor type A (Cavia porcellus, UniProt Q63931)
T1 sequence (Q63931 whole entry): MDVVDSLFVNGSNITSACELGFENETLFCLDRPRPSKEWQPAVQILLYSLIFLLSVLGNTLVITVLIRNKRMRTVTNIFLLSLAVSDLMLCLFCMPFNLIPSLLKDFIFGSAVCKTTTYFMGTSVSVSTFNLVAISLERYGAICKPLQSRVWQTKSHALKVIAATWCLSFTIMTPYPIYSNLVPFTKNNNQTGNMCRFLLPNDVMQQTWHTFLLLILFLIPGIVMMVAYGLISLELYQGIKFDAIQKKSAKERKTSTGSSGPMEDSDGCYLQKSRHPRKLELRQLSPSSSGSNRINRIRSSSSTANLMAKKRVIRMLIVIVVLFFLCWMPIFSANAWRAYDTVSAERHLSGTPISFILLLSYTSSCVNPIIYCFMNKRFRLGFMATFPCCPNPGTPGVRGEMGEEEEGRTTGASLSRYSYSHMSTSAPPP
Assay: Binding activity towards cholecystokinin-A (CCK-A) receptor in guinea pig pancreas

SMILES | IC50 [nM]
Cc1ccc2c(c1)N(CC(=O)NC(C)(C)C)C(=O)[C@H](NC(=O)Nc1cccc(C(=O)O)c1)C[C@@H]2C1CCCCC1 (stereo in doubt; 5k) | 2300
Cc1ccc2c(c1)N(CC(=O)NC(C)(C)C)C(=O)[C@H](NC(=O)Nc1cccc(C(=O)NS(C)(=O)=O)c1)C[C@@H]2c1ccccc1 | 970
Cc1ccc2c(c1)N(CC(=O)NC(C)(C)C)C(=O)[C@H](NC(=O)Nc1cccc(C(=O)O)c1)C[C@@H]2C1CCCCC1 (stereo in doubt; 2) | 1400
Cc1ccc([C@H]2C[C@@H](NC(=O)Nc3cccc(-c4nn[nH]n4)c3)C(=O)N(CC(=O)NC(C)(C)C)c3cc(C)ccc32)cc1 | 600
COC(=O)c1cccc(NC(=O)N[C@@H]2C[C@H](c3ccccc3)c3ccc(C)cc3N(CC(=O)NC(C)(C)C)C2=O)c1 | 310
Cc1ccc2c(c1)N(CC(=O)NC(C)(C)C)C(=O)[C@H](NC(=O)Nc1cccc(C(=O)NS(=O)(=O)C(F)(F)F)c1)C[C@@H]2c1ccccc1 | 320
Cc1ccc2c(c1)N(CC(=O)NC(C)(C)C)C(=O)[C@H](NC(=O)Nc1cccc(C(=O)NS(=O)(=O)Cc3ccccc3)c1)C[C@@H]2c1ccccc1 | 730
Cc1ccc2c(c1)N(CC(=O)NC(C)(C)C)C(=O)[C@H](NC(=O)Nc1cccc(-c3nnn[nH]3)c1)C[C@@H]2C1CCCCC1 | 490
Cc1ccc2c(c1)N(CC(=O)NC(C)(C)C)C(=O)[C@H](NC(=O)Nc1cccc(-c3nnn[nH]3)c1)C[C@@H]2CC1CCCCC1 | 220
Cc1ccc2c(c1)N(CC(=O)NC(C)(C)C)C(=O)[C@H](NC(=O)Nc1cccc(-c3nnn[nH]3)c1)C[C@@H]2Cc1ccccc1 | 34
Cc1ccc2c(c1)N(CC(=O)NC(C)(C)C)C(=O)[C@H](NC(=O)Nc1cccc(C(=O)NS(=O)(=O)c3ccccc3)c1)C[C@@H]2c1ccccc1 | 1300
CCS(=O)(=O)NC(=O)c1cccc(NC(=O)N[C@@H]2C[C@H](c3ccccc3)c3ccc(C)cc3N(CC(=O)NC(C)(C)C)C2=O)c1 | 1100
Cc1ccc2c(c1)N(CC(=O)NC(C)(C)C)C(=O)[C@H](NC(=O)Nc1cccc(C(=O)NS(=O)(=O)c3ccccc3C)c1)C[C@@H]2c1ccccc1 | 1300
Cc1ccc2c(c1)N(CC(=O)NC(C)(C)C)C(=O)[C@H](NC(=O)Nc1cccc(-c3nnn[nH]3)c1)C[C@@H]2C(C)C | 250
Cc1ccc2c(c1)N(CC(=O)NC(C)(C)C)C(=O)[C@H](NC(=O)Nc1cccc(C(=O)NS(C)(=O)=O)c1)C[C@@H]2C1CCCCC1 | 520
Cc1ccc2c(c1)N(CC(=O)NC(C)(C)C)C(=O)[C@H](NC(=O)Nc1cccc(C(=O)O)c1)C[C@@H]2c1ccccc1 | 4200
Cc1ccc2c(c1)N(CC(=O)NC(C)(C)C)C(=O)[C@H](NC(=O)Nc1cccc(-c3nnn[nH]3)c1)C[C@@H]2c1ccccc1 | 620
COC(=O)c1cccc(NC(=O)N[C@@H]2C[C@H](C3CCCCC3)c3ccc(C)cc3N(CC(=O)NC(C)(C)C)C2=O)c1 | 370
Cc1ccc2c(c1)N(CC(=O)NC(C)(C)C)C(=O)[C@H](NC(=O)Nc1cccc(C(=O)Nc3nnn[nH]3)c1)C[C@@H]2c1ccccc1 | 1000

From ChEMBL document CHEMBL1128613, “A water soluble benzazepine cholecystokinin-B receptor antagonist” (Bioorg Med Chem Lett, 1995)
